Test results from US6706663B2, “Herbicidal 3-heterocyclic substituted benzisothiazole and benzisoxazole compounds” (Wyeth, priority 2000, dated 2004).

Assays:
[1] = tested on: ECHCG (Echinochloa crus-galli); test: Postemergence herbicidal evaluation; type: in vivo, (L.) Beau
How it was run: (§1)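 Visual 0–9 injury scores versus control plants, covering stand, vigour, malformation, size, chlorosis and general appearance, taken four to five weeks post-spray and averaged over replicate tests. Plants were sprayed at roughly two weeks old and held on greenhouse benches.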

SETVI (Setaria viridis) = test: Postemergence herbicidal evaluation; type: in vivo, (L.) Beau
How it was run: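 Postemergence foliar spray on two-week-old seedlings, dose equivalent to about 0.0040 to 1.000 kg/ha. Ratings use a 0-9 visual scale relative to control at four to five weeks.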

[2] = tested on: TRZAWR (Wheat, Winter, cv Riband); test: Postemergence herbicidal evaluation; type: in vivo, Triticum aestivum
How it was run: as §1

[3] = tested on: ABUTH (Abutilon theophrasti); test: Preemergence herbicidal evaluation; type: in vivo, Medic.; conditions: rated 4-5 weeks after treatment
[4] = tested on: AMBEL (Ambrosia artemisifolia); test: Preemergence herbicidal evaluation; type: in vivo, L.; conditions: rated 4-5 weeks after treatment
How it was run: (§2)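 Rating 0–9, visual, vs control; 4–5 wk after spraying seeded cups with compound in aq. acetone; conventional greenhouse care.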

[5] = tested on: CASOB (Cassia obtusifolia); test: Preemergence herbicidal evaluation; type: in vivo, L.; conditions: rated 4-5 weeks after treatment
How it was run: as §2

[6] = tested on: CHEAL (Chenopodium album); test: Preemergence herbicidal evaluation; type: in vivo, L.; conditions: rated 4-5 weeks after treatment
How it was run: as §2

[7] = tested on: IPOHE (Ipomoea hederacea); test: Preemergence herbicidal evaluation; type: in vivo, (L.) Jacq.; conditions: rated 4-5 weeks after treatment
[8] = tested on: GLXMAW (Soybean, Williams); test: Preemergence herbicidal evaluation; type: in vivo, Glycine max, (L.) Merr. cv Williams; conditions: rated 4-5 weeks after treatment
ZEAMX (Corn, Field) = test: Preemergence herbicidal evaluation; type: in vivo, Zea mays, L.; conditions: rated 4-5 weeks after treatment
[9] = tested on: ECHORC (Echinochloa oryzoides); test: Flooded paddy, preemergence weed control; type: in vivo, Echinochloa oryzoides (Ard.) Fritsch.; conditions: rated 3-4 weeks after treatment, 0-9 rating scale
How it was run: (§3)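 Visual 0–9 ratings versus controls scored stand, vigor, malformation, size, chlorosis and overall appearance. Plants grew from seeds or propagating organs sown 0.5 cm deep in silt loam, with water held 1.5–3 cm above the soil for the whole test under greenhouse care.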

CYPIR (Cyperus iria) = test: Flooded paddy, preemergence weed control; type: in vivo; conditions: rated 3-4 weeks after treatment, 0-9 rating scale
How it was run: as §3

[10] = tested on: CYPSE (Cyperus serotinus); test: Flooded paddy, preemergence weed control; type: in vivo, Rottb.; conditions: rated 3-4 weeks after treatment, 0-9 rating scale
How it was run: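 Seeds or propagules were planted 0.5 cm deep in silt loam and flooded to 1.5–3 cm. Compounds in 50/50 v/v aqueous/acetone were pipetted into the flood water at about 0.0080 to 0.1250 kg/ha. After 3–4 weeks in the greenhouse, effect was rated visually on a 0–9 scale versus untreated control.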

[11] = tested on: MOOVA (Monochoria vaginalis); test: Flooded paddy, preemergence weed control; type: in vivo, Presl.; conditions: rated 3-4 weeks after treatment, 0-9 rating scale
How it was run: as §3

[12] = tested on: SAGPY (Sagittaria pygmaea); test: Flooded paddy, preemergence weed control; type: in vivo, L.; conditions: rated 3-4 weeks after treatment, 0-9 rating scale
How it was run: as §3

ORYSAT (Rice, Tebonnet) = test: Flooded paddy, post-transplant rice tolerance; type: in vivo, Oryza sativa, (L.) Tebonnet; conditions: flooded paddy, post-transplant rice, rated 3-4 weeks after treatment, 0-9 rating scale
How it was run: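 Scores (0-9) reflect visual injury relative to untreated plants in flooded silt loam. Each pot held two transplanted ten-day-old seedlings under 1.5 to 3 cm standing water in the greenhouse.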

CCOc1cc(OCC)nc(-c2nsc3ccc(-n4c(=O)cc(C(F)(F)F)n(C)c4=O)cc23)n1 [Compound 43, 3-[3-(4,6-diethoxy-2-pyrimidinyl)-1,2-benzisothiazol-5-yl]-1-methyl-6-(trifluoromethyl)uracil]
Postemergence herbicidal rating, ECHCG ([1]; rate 0.0320 kg/ha): 2.0
Postemergence herbicidal rating, ECHCG ([1]; rate 0.0620 kg/ha): 2.0
Postemergence herbicidal rating, SETVI (SETVI (Setaria viridis); rate 0.0320 kg/ha): 5.0
Postemergence herbicidal rating, SETVI (SETVI (Setaria viridis); rate 0.0620 kg/ha): 4.0
Postemergence herbicidal rating, TRZAWR ([2]; rate 0.0320 kg/ha): 2.5
Postemergence herbicidal rating, TRZAWR ([2]; rate 0.0620 kg/ha): 3.5
Preemergence herbicidal rating ABUTH ([3]; Rate 0.0620 kg/ha): 4.0
Preemergence herbicidal rating ABUTH ([3]; Rate 0.1250 kg/ha): 9.0
Preemergence herbicidal rating ABUTH ([3]; Rate 0.2500 kg/ha): 9.0
Preemergence herbicidal rating AMBEL ([4]; Rate 0.0620 kg/ha): 0.0
Preemergence herbicidal rating AMBEL ([4]; Rate 0.1250 kg/ha): 1.0
Preemergence herbicidal rating AMBEL ([4]; Rate 0.2500 kg/ha): 7.0
Preemergence herbicidal rating CASOB ([5]; Rate 0.0620 kg/ha): 0.0
Preemergence herbicidal rating CASOB ([5]; Rate 0.1250 kg/ha): 0.0
Preemergence herbicidal rating CASOB ([5]; Rate 0.2500 kg/ha): 1.0
Preemergence herbicidal rating CHEAL ([6]; Rate 0.0620 kg/ha): 9.0
Preemergence herbicidal rating CHEAL ([6]; Rate 0.1250 kg/ha): 9.0
Preemergence herbicidal rating CHEAL ([6]; Rate 0.2500 kg/ha): 9.0
Preemergence herbicidal rating IPOHE ([7]; Rate 0.0620 kg/ha): 0.0
Preemergence herbicidal rating IPOHE ([7]; Rate 0.1250 kg/ha): 0.0
Preemergence herbicidal rating IPOHE ([7]; Rate 0.2500 kg/ha): 2.0
Preemergence herbicidal rating GLXMAW ([8]; Rate 0.0620 kg/ha): 1.0
Preemergence herbicidal rating GLXMAW ([8]; Rate 0.1250 kg/ha): 3.0
Preemergence herbicidal rating GLXMAW ([8]; Rate 0.2500 kg/ha): 5.0
Preemergence herbicidal rating ZEAMX (ZEAMX (Corn, Field); Rate 0.0620 kg/ha): 2.0
Preemergence herbicidal rating ZEAMX (ZEAMX (Corn, Field); Rate 0.1250 kg/ha): 2.0
Preemergence herbicidal rating ZEAMX (ZEAMX (Corn, Field); Rate 0.2500 kg/ha): 6.0
herbicidal rating, ECHORC ([9]; rate 0.0320 kg/ha): 5.0
herbicidal rating, ECHORC ([9]; rate 0.1250 kg/ha): 9.0
herbicidal rating, CYPIR (CYPIR (Cyperus iria); rate 0.0320 kg/ha): 0.0
herbicidal rating, CYPIR (CYPIR (Cyperus iria); rate 0.1250 kg/ha): 5.0
herbicidal rating, CYPSE ([10]; rate 0.0320 kg/ha): 0.0
herbicidal rating, CYPSE ([10]; rate 0.1250 kg/ha): 0.0
herbicidal rating, MOOVA ([11]; rate 0.0320 kg/ha): 4.0
herbicidal rating, MOOVA ([11]; rate 0.1250 kg/ha): 6.0
herbicidal rating, SAGPY ([12]; rate 0.0320 kg/ha): 0.0
herbicidal rating, SAGPY ([12]; rate 0.1250 kg/ha): 2.0
herbicidal rating, ORYSAT (rice tolerance) (ORYSAT (Rice, Tebonnet); rate 0.0320 kg/ha): 0.0
herbicidal rating, ORYSAT (rice tolerance) (ORYSAT (Rice, Tebonnet); rate 0.1250 kg/ha): 2.0

Cc1cccnc1-c1nsc2cc(F)c(-n3c(=O)cc(C(F)(F)F)n(C)c3=O)cc12 [Compound 44, 3-[6-fluoro-3-(3-methyl-2-pyridyl)-1,2-benzisothiazol-5-yl]-1-methyl-6-(trifluoromethyl)uracil]
Postemergence herbicidal rating, ECHCG ([1]; rate 0.0320 kg/ha): 1.0
Postemergence herbicidal rating, ECHCG ([1]; rate 0.0620 kg/ha): 3.0
Postemergence herbicidal rating, SETVI (SETVI (Setaria viridis); rate 0.0320 kg/ha): 9.0
Postemergence herbicidal rating, SETVI (SETVI (Setaria viridis); rate 0.0620 kg/ha): 9.0
Postemergence herbicidal rating, TRZAWR ([2]; rate 0.0320 kg/ha): 4.0
Postemergence herbicidal rating, TRZAWR ([2]; rate 0.0620 kg/ha): 5.0
Preemergence herbicidal rating ABUTH ([3]; Rate 0.0620 kg/ha): 9.0
Preemergence herbicidal rating ABUTH ([3]; Rate 0.1250 kg/ha): 9.0
Preemergence herbicidal rating ABUTH ([3]; Rate 0.2500 kg/ha): 9.0
Preemergence herbicidal rating AMBEL ([4]; Rate 0.0620 kg/ha): 8.0
Preemergence herbicidal rating AMBEL ([4]; Rate 0.1250 kg/ha): 9.0
Preemergence herbicidal rating AMBEL ([4]; Rate 0.2500 kg/ha): 9.0
Preemergence herbicidal rating CASOB ([5]; Rate 0.0620 kg/ha): 1.0
Preemergence herbicidal rating CASOB ([5]; Rate 0.1250 kg/ha): 5.5
Preemergence herbicidal rating CASOB ([5]; Rate 0.2500 kg/ha): 9.0
Preemergence herbicidal rating CHEAL ([6]; Rate 0.0620 kg/ha): 9.0
Preemergence herbicidal rating CHEAL ([6]; Rate 0.1250 kg/ha): 9.0
Preemergence herbicidal rating CHEAL ([6]; Rate 0.2500 kg/ha): 9.0
Preemergence herbicidal rating IPOHE ([7]; Rate 0.0620 kg/ha): 3.0
Preemergence herbicidal rating IPOHE ([7]; Rate 0.1250 kg/ha): 7.5
Preemergence herbicidal rating IPOHE ([7]; Rate 0.2500 kg/ha): 9.0
Preemergence herbicidal rating GLXMAW ([8]; Rate 0.0620 kg/ha): 5.0
Preemergence herbicidal rating GLXMAW ([8]; Rate 0.1250 kg/ha): 6.5
Preemergence herbicidal rating GLXMAW ([8]; Rate 0.2500 kg/ha): 9.0
Preemergence herbicidal rating ZEAMX (ZEAMX (Corn, Field); Rate 0.0620 kg/ha): 7.5
Preemergence herbicidal rating ZEAMX (ZEAMX (Corn, Field); Rate 0.1250 kg/ha): 7.5
Preemergence herbicidal rating ZEAMX (ZEAMX (Corn, Field); Rate 0.2500 kg/ha): 9.0
herbicidal rating, ECHORC ([9]; rate 0.0080 kg/ha): 3.0
herbicidal rating, ECHORC ([9]; rate 0.0320 kg/ha): 8.5
herbicidal rating, ECHORC ([9]; rate 0.1250 kg/ha): 9.0
herbicidal rating, CYPIR (CYPIR (Cyperus iria); rate 0.0080 kg/ha): 0.0
herbicidal rating, CYPIR (CYPIR (Cyperus iria); rate 0.0320 kg/ha): 8.0
herbicidal rating, CYPIR (CYPIR (Cyperus iria); rate 0.1250 kg/ha): 9.0
herbicidal rating, CYPSE ([10]; rate 0.0080 kg/ha): 0.0
herbicidal rating, CYPSE ([10]; rate 0.0320 kg/ha): 9.0
herbicidal rating, CYPSE ([10]; rate 0.1250 kg/ha): 9.0
herbicidal rating, MOOVA ([11]; rate 0.0080 kg/ha): 0.0
herbicidal rating, MOOVA ([11]; rate 0.0320 kg/ha): 8.5
herbicidal rating, MOOVA ([11]; rate 0.1250 kg/ha): 9.0
herbicidal rating, SAGPY ([12]; rate 0.0080 kg/ha): 0.0
herbicidal rating, SAGPY ([12]; rate 0.0320 kg/ha): 4.5
herbicidal rating, SAGPY ([12]; rate 0.1250 kg/ha): 9.0
herbicidal rating, ORYSAT (rice tolerance) (ORYSAT (Rice, Tebonnet); rate 0.0080 kg/ha): 0.0
herbicidal rating, ORYSAT (rice tolerance) (ORYSAT (Rice, Tebonnet); rate 0.0320 kg/ha): 7.5
herbicidal rating, ORYSAT (rice tolerance) (ORYSAT (Rice, Tebonnet); rate 0.1250 kg/ha): 7.5
